Assay results reported in PubChem BioAssay (NCI).
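Interpolation was linear, between the two tested concentrations surrounding the appropriate level; five concentrations were tested over 48 hours in 96-well plates. The concentration for 50% growth inhibition is given as GI50. TGI denotes the concentration required for complete inhibition of growth.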

Experiments:
Test in all cases: NCI tumour cell line growth inhibition, 48 h; in the data active means GI50 below about 0.43 µM; inactive means the rest
CAKI-1 renal = system: CAKI-1 renal
SW-620 colon = system: SW-620 colon
HCC-2998 colon = system: HCC-2998 colon
HOP-92 NSCLC = system: HOP-92 NSCLC
TK-10 renal = system: TK-10 renal
UACC-62 melanoma = system: UACC-62 melanoma
NCI-H226 lung = system: NCI-H226 lung
UACC-257 melanoma = system: UACC-257 melanoma
K-562 leukemia = system: K-562 leukemia
SF-268 CNS = system: SF-268 CNS
NCI-H460 lung = system: NCI-H460 lung
786-0 renal = system: 786-0 renal
SK-MEL-2 melanoma = system: SK-MEL-2 melanoma
SR leukemia = system: SR leukemia
IGROV1 ovarian = system: IGROV1 ovarian
SK-MEL-28 melanoma = system: SK-MEL-28 melanoma
HS 578T breast = system: HS 578T breast
M14 melanoma = system: M14 melanoma
SK-MEL-5 melanoma = system: SK-MEL-5 melanoma
HCT-116 colon = system: HCT-116 colon
COLO 205 colon = system: COLO 205 colon
A549 NSCLC = system: A549 NSCLC
U251 CNS = system: U251 CNS
MDA-MB-231 breast = system: MDA-MB-231 breast
SNB-19 CNS = system: SNB-19 CNS
NCI-H23 lung = system: NCI-H23 lung
BT-549 breast = system: BT-549 breast
NCI-H522 lung = system: NCI-H522 lung
CCRF-CEM leukemia = system: CCRF-CEM leukemia
MOLT-4 leukemia = system: MOLT-4 leukemia
MALME-3M melanoma = system: MALME-3M melanoma
HOP-62 NSCLC = system: HOP-62 NSCLC
LOX IMVI melanoma = system: LOX IMVI melanoma
DU-145 prostate = system: DU-145 prostate
RXF 393 renal = system: RXF 393 renal
OVCAR-5 ovarian = system: OVCAR-5 ovarian
HL-60(TB) leukemia = system: HL-60(TB) leukemia
SN12C renal = system: SN12C renal
HCT-15 colon = system: HCT-15 colon
ACHN renal = system: ACHN renal
MCF7 breast = system: MCF7 breast
NCI/ADR-RES ovarian = system: NCI/ADR-RES ovarian
EKVX NSCLC = system: EKVX NSCLC
OVCAR-8 ovarian = system: OVCAR-8 ovarian
MDA-MB-435 = system: MDA-MB-435
SF-539 CNS = system: SF-539 CNS
HT29 colon = system: HT29 colon
RPMI-8226 leukemia = system: RPMI-8226 leukemia
SNB-75 CNS = system: SNB-75 CNS
OVCAR-4 ovarian = system: OVCAR-4 ovarian
SF-295 CNS = system: SF-295 CNS
A498 renal = system: A498 renal
KM12 colon = system: KM12 colon
T-47D breast = system: T-47D breast
SK-OV-3 ovarian = system: SK-OV-3 ovarian
OVCAR-3 ovarian = system: OVCAR-3 ovarian
UO-31 renal = system: UO-31 renal

COc1cc(/C=C/C(=O)c2ccc(Nc3nc(Nc4ccccc4)nc(Nc4ccc(Cl)cc4)n3)cc2)cc(OC)c1OC
11.3 µM: TGI (HL-60(TB) leukemia)
19.3 µM: TGI (SR leukemia)
30.6 µM: TGI (SK-MEL-5 melanoma)
20.9 µM: TGI (RPMI-8226 leukemia)
> 32.5 µM: TGI (CAKI-1 renal) | TGI (SW-620 colon) | TGI (HCC-2998 colon) | TGI (HOP-92 NSCLC) | TGI (TK-10 renal) | TGI (UACC-62 melanoma) | TGI (NCI-H226 lung) | TGI (UACC-257 melanoma) | TGI (K-562 leukemia) | TGI (SF-268 CNS) | TGI (NCI-H460 lung) | TGI (786-0 renal) | TGI (SK-MEL-2 melanoma) | TGI (IGROV1 ovarian) | TGI (SK-MEL-28 melanoma) | TGI (HS 578T breast) | TGI (M14 melanoma) | TGI (HCT-116 colon) | TGI (COLO 205 colon) | TGI (A549 NSCLC) | TGI (U251 CNS) | TGI (MDA-MB-231 breast) | TGI (SNB-19 CNS) | TGI (NCI-H23 lung) | TGI (BT-549 breast) | TGI (NCI-H522 lung) | TGI (CCRF-CEM leukemia) | TGI (MOLT-4 leukemia) | TGI (MALME-3M melanoma) | TGI (HOP-62 NSCLC) | TGI (LOX IMVI melanoma) | TGI (DU-145 prostate) | TGI (OVCAR-5 ovarian) | TGI (SN12C renal) | TGI (HCT-15 colon) | TGI (ACHN renal) | TGI (MCF7 breast) | TGI (NCI/ADR-RES ovarian) | TGI (EKVX NSCLC) | TGI (OVCAR-8 ovarian) | TGI (MDA-MB-435) | TGI (HT29 colon) | TGI (SNB-75 CNS) | TGI (OVCAR-4 ovarian) | TGI (SF-295 CNS) | TGI (A498 renal) | TGI (KM12 colon) | TGI (T-47D breast) | TGI (SK-OV-3 ovarian) | TGI (OVCAR-3 ovarian) | TGI (UO-31 renal)
16.2 µM: TGI (SF-539 CNS)
25.3 µM: TGI (RXF 393 renal)
inactive: GI50 (CAKI-1 renal) 11 µM | GI50 (SW-620 colon) 8.46 µM | GI50 (HCC-2998 colon) > 32.5 µM | GI50 (HOP-92 NSCLC) 1.91 µM | GI50 (TK-10 renal) 19.1 µM | GI50 (UACC-62 melanoma) 14.7 µM | GI50 (NCI-H226 lung) 7.66 µM | GI50 (UACC-257 melanoma) > 32.5 µM | GI50 (K-562 leukemia) 4.18 µM | GI50 (SF-268 CNS) 23.8 µM | GI50 (NCI-H460 lung) 8.71 µM | GI50 (786-0 renal) 9.84 µM | GI50 (SK-MEL-2 melanoma) > 32.5 µM | GI50 (SR leukemia) 1.07 µM | GI50 (IGROV1 ovarian) 8.17 µM | GI50 (SK-MEL-28 melanoma) 14.5 µM | GI50 (HS 578T breast) 15.2 µM | GI50 (M14 melanoma) 15.1 µM | GI50 (SK-MEL-5 melanoma) 4.76 µM | GI50 (HCT-116 colon) 2.68 µM | GI50 (COLO 205 colon) 8.55 µM | GI50 (A549 NSCLC) > 32.5 µM | GI50 (U251 CNS) 4.62 µM | GI50 (MDA-MB-231 breast) 18.5 µM | GI50 (SNB-19 CNS) > 32.5 µM | GI50 (NCI-H23 lung) 11.9 µM | GI50 (BT-549 breast) 7.51 µM | GI50 (NCI-H522 lung) 13.9 µM | GI50 (CCRF-CEM leukemia) 4.12 µM | GI50 (MOLT-4 leukemia) 2.65 µM | GI50 (MALME-3M melanoma) 9.71 µM | GI50 (HOP-62 NSCLC) > 32.5 µM | GI50 (LOX IMVI melanoma) 7.19 µM | GI50 (DU-145 prostate) > 32.5 µM | GI50 (RXF 393 renal) 5.09 µM | GI50 (OVCAR-5 ovarian) 10.4 µM | GI50 (HL-60(TB) leukemia) 1.18 µM | GI50 (SN12C renal) 20.9 µM | GI50 (HCT-15 colon) 8.86 µM | GI50 (ACHN renal) 10.8 µM | GI50 (MCF7 breast) 2.02 µM | GI50 (NCI/ADR-RES ovarian) 31.5 µM | GI50 (EKVX NSCLC) 24.1 µM | GI50 (OVCAR-8 ovarian) 3.34 µM | GI50 (MDA-MB-435) 11.3 µM | GI50 (SF-539 CNS) 6.84 µM | GI50 (HT29 colon) 5.39 µM | GI50 (RPMI-8226 leukemia) 2.21 µM | GI50 (SNB-75 CNS) 6.05 µM | GI50 (OVCAR-4 ovarian) 14 µM | GI50 (SF-295 CNS) 7.22 µM | GI50 (A498 renal) 28.2 µM | GI50 (KM12 colon) 8.83 µM | GI50 (T-47D breast) 3.03 µM | GI50 (SK-OV-3 ovarian) > 32.5 µM | GI50 (OVCAR-3 ovarian) 8.62 µM | GI50 (UO-31 renal) 2.46 µM

CCS/C(Nc1ccccc1)=C(\C#N)C(=O)N/N=C/c1ccc(Cl)cc1Cl
8.66 µM: TGI (RXF 393 renal)
20.6 µM: TGI (SF-539 CNS)
43.6 µM: TGI (SK-MEL-2 melanoma)
37.8 µM: TGI (A498 renal)
inactive: GI50 (CAKI-1 renal) 2.39 µM | GI50 (SW-620 colon) 4.65 µM | GI50 (HCC-2998 colon) 5.47 µM | GI50 (TK-10 renal) 10.2 µM | GI50 (UACC-62 melanoma) 2.74 µM | GI50 (NCI-H226 lung) 4 µM | GI50 (UACC-257 melanoma) 25.7 µM | GI50 (K-562 leukemia) 0.855 µM | GI50 (SF-268 CNS) 6.58 µM | GI50 (NCI-H460 lung) 3.16 µM | GI50 (786-0 renal) 3.5 µM | GI50 (SK-MEL-2 melanoma) 3.24 µM | GI50 (SR leukemia) 3.45 µM | GI50 (IGROV1 ovarian) 6.46 µM | GI50 (SK-MEL-28 melanoma) 23.6 µM | GI50 (HS 578T breast) 2.74 µM | GI50 (M14 melanoma) 2.01 µM | GI50 (SK-MEL-5 melanoma) 2.28 µM | GI50 (HCT-116 colon) 2.99 µM | GI50 (A549 NSCLC) 4.63 µM | GI50 (U251 CNS) 3.95 µM | GI50 (MDA-MB-231 breast) 4.75 µM | GI50 (SNB-19 CNS) 4.17 µM | GI50 (NCI-H23 lung) 6.47 µM | GI50 (BT-549 breast) 2.8 µM | GI50 (CCRF-CEM leukemia) 3.07 µM | GI50 (MOLT-4 leukemia) 3.48 µM | GI50 (MALME-3M melanoma) 9.3 µM | GI50 (HOP-62 NSCLC) 3.66 µM | GI50 (LOX IMVI melanoma) 5.88 µM | GI50 (DU-145 prostate) 3.57 µM | GI50 (RXF 393 renal) 2.06 µM | GI50 (OVCAR-5 ovarian) 8.25 µM | GI50 (HL-60(TB) leukemia) 3.2 µM | GI50 (SN12C renal) 6.92 µM | GI50 (HCT-15 colon) 2.9 µM | GI50 (ACHN renal) 7.08 µM | GI50 (MCF7 breast) 2.99 µM | GI50 (NCI/ADR-RES ovarian) 3.16 µM | GI50 (EKVX NSCLC) 5.09 µM | GI50 (OVCAR-8 ovarian) 4.81 µM | GI50 (SF-539 CNS) 2.89 µM | GI50 (HT29 colon) 3.7 µM | GI50 (RPMI-8226 leukemia) 3.68 µM | GI50 (SNB-75 CNS) 2.15 µM | GI50 (OVCAR-4 ovarian) 6.57 µM | GI50 (SF-295 CNS) 2.89 µM | GI50 (A498 renal) 1.87 µM | GI50 (KM12 colon) 4.04 µM | GI50 (T-47D breast) 4.03 µM | GI50 (SK-OV-3 ovarian) 3.72 µM | GI50 (OVCAR-3 ovarian) 2.8 µM | GI50 (UO-31 renal) 6.91 µM
8.53 µM: TGI (SK-MEL-5 melanoma)
10.7 µM: TGI (OVCAR-3 ovarian)
9.37 µM: TGI (SNB-75 CNS)
active: GI50 (MDA-MB-435) 0.419 µM
2.23 µM: TGI (MDA-MB-435)
9.61 µM: TGI (M14 melanoma)
> 100 µM: TGI (CAKI-1 renal) | TGI (SW-620 colon) | TGI (HCC-2998 colon) | TGI (TK-10 renal) | TGI (UACC-62 melanoma) | TGI (NCI-H226 lung) | TGI (UACC-257 melanoma) | TGI (K-562 leukemia) | TGI (SF-268 CNS) | TGI (NCI-H460 lung) | TGI (786-0 renal) | TGI (SR leukemia) | TGI (IGROV1 ovarian) | TGI (SK-MEL-28 melanoma) | TGI (HCT-116 colon) | TGI (A549 NSCLC) | TGI (U251 CNS) | TGI (MDA-MB-231 breast) | TGI (SNB-19 CNS) | TGI (NCI-H23 lung) | TGI (BT-549 breast) | TGI (CCRF-CEM leukemia) | TGI (MOLT-4 leukemia) | TGI (MALME-3M melanoma) | TGI (HOP-62 NSCLC) | TGI (LOX IMVI melanoma) | TGI (DU-145 prostate) | TGI (OVCAR-5 ovarian) | TGI (HL-60(TB) leukemia) | TGI (SN12C renal) | TGI (HCT-15 colon) | TGI (ACHN renal) | TGI (MCF7 breast) | TGI (NCI/ADR-RES ovarian) | TGI (EKVX NSCLC) | TGI (OVCAR-8 ovarian) | TGI (HT29 colon) | TGI (RPMI-8226 leukemia) | TGI (OVCAR-4 ovarian) | TGI (SF-295 CNS) | TGI (KM12 colon) | TGI (T-47D breast) | TGI (SK-OV-3 ovarian) | TGI (UO-31 renal)
98.7 µM: TGI (HS 578T breast)
